{"source": "patent US20220249415A1", "about": "“COMPOSITION OF AZELAIC ACID HAVING ADIPOSE TRIGLYCERIDE HYDROLYSIS EFFECT” (Korea University Research and Business Foundation, priority 2018, published 2022)", "key": {"[1]": {"test": "Dose evaluation experiment, oral administration, body weight control", "type": "in vivo", "conditions": "6 mg/kg of azelaic acid, 6 weeks", "experimental": "Azelaic acid was orally administered for 6 weeks, and the body weight control effects of three doses (6, 17, 20 mg/kg) were compared. The commercially available anti-obesity drugs Xenical and Panbesy were used as positive controls. […] Similar results were also obtained when a secondary experiment was performed to confirm the results."}, "HepG2 cells [2]": {"test_system": "HepG2 cells", "test": "qPCR of anti-obesity gene in HepG2 cells, with OR2K2 knock-down", "type": "cell-based, human", "experimental": "In-vitro equivalence confirmation: HepG2 cells, which are a human liver tissue cell line, and hAMSC cells, which are a human adipocyte line, were treated with azelaic acid and the anti-obesity gene was measured through a qPCR method."}, "[3]": {"test_system": "3T3-L1 adipocytes in which the Olfr544 gene was knocked-down", "test": "Lipolysis (glycerol) in adipocytes in which Olfr544 gene was knocked-down", "type": "cell-based, mouse", "conditions": "Olfr544 shRNA transfected adipocytes treated with azelaic acid for 2 hours", "experimental": "After the Olfr544 gene was knocked-down in the mouse adipocytes, the adipocytes were treated with azelaic acid, and whether or not a triglyceride hydrolysis effect of azelaic acid was maintained was confirmed."}, "HepG2 cells [4]": {"test_system": "HepG2 cells", "test": "Treatment of human liver tissue cell line HepG2 with azelaic acid", "type": "cell-based", "conditions": "azelaic acid 50 μM"}, "normal mice": {"test_system": "normal mice", "test": "Energy metabolism by indirect calorimetry in normal mice", "type": "in vivo, mouse", "conditions": "50 mg/kg oral, 6 weeks", "source_text": "Relative metabolic rates were confirmed by measuring consumption amount of O2 and production amounts of CO2 of an azelaic acid administration group and a control group using indirect calorimetry."}, "3T3-L1 adipocytes [5]": {"test_system": "3T3-L1 adipocytes", "test": "Intracellular cholesterol concentration (Amplex Red kit) in 3T3-L1 adipocytes", "type": "cell-based, mouse", "conditions": "azelaic acid 25 or 50 μM", "experimental": "In order to confirm whether or not azelaic acid induces triglyceride hydrolysis in adipocytes by activating a cAMP-PKA-HSL signaling pathway, the adipocytes were directly treated with azelaic acid, and concentrations of intracellular lipids were measured. […] Then, a concentration of triglycerides was measured using a TG assay kit (BioVision, California, U.S.) and a concentration of cholesterol was measured using an Amplex Red cholesterol assay kit (Invitrogen, California, U.S.)."}, "[6]": {"conditions": "reported results of a study; formed in the body; cited from earlier work"}, "3T3-L1 adipocytes [7]": {"test_system": "3T3-L1 adipocytes", "test": "Western blot of phosphorylation of CREB and HSL in 3T3-L1 adipocytes", "type": "cell-based, mouse", "conditions": "azelaic acid 50 μM, 2 hours, vs control", "source_text": "When the PKA protein activity is increased by azelaic acid, phosphorylation of target proteins of PKA is increased. Therefore, phosphorylation of cAMP-response element binding protein (CREB) and hormone-sensitive lipase (HSL) known as target proteins of PKA was confirmed by a western blot experiment. […] Primary antibodies used in the experiment were anti-phospho-CREB and anti-phospho-HSL antibodies (Santa Cruz, Calif., U.S.)."}, "OR2K2 [8]": {"biological_target": "T1, OR2K2 (Homo sapiens, UniProt Q8NGT1, D270A)", "T1 construct": "expressed in transfected cells; host or cells: Hana3A", "T1 sequence (Q8NGT1 1-316 D270A)": "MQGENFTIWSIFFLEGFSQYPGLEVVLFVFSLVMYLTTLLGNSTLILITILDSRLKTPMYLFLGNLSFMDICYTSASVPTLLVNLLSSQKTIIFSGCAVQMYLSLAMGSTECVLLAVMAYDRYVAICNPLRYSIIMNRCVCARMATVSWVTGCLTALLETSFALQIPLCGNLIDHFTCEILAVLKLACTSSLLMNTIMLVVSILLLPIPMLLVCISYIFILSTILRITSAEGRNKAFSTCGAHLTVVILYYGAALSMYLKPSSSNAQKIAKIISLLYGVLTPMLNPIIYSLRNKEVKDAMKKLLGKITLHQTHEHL", "test": "Luciferase assay of OR2K2 mutants transfected into Hana3A cells", "type": "cell-based", "conditions": "OR2K2 D270A mutant in Hana3A cells", "source_text": "(§1) In order to confirm the binding site of the olfactory receptor OR2K2 protein that binds to azelaic acid, among amino acids, Y120, which is a tyrosine (Y) residue, E159, which is a glutamate (E) residue, and D270, which is an aspartate (D) residue, were predicted through in-silico modeling, and the corresponding position of the predicted amino acid residue was subjected to site-directed mutagenesis to obtain a mutant. For negative controls, Y120A, E159A, and D270A mutants in which all three amino acid residues were replaced with alanine were used. For positive controls, Y120F, E159D, and D270E mutants, including Y120F replaced with phenylalanine (F) for Y120, E159D replaced with aspartate for E159, and D270E replaced with glutamate for D270, were used.\n(§2) The cDNA clone including the sequence of each OR2K2 mutant for measuring the binding affinity of azelaic acid was transfected into Hana3A cells, and a luciferase assay was performed. […] This is deemed to be because azelaic acid binds to OR2K2 by reacting the E159 and D270 moieties of OR2K2 with both carboxyl groups of azelaic acid."}, "OR2K2 [9]": {"biological_target": "T2, OR2K2 (Homo sapiens, UniProt Q8NGT1, E159A)", "T2 construct": "expressed in transfected cells; host or cells: Hana3A", "T2 sequence (Q8NGT1 1-316 E159A)": "T1 sequence (Q8NGT1 1-316 D270A) with E159A, A270D", "test": "Luciferase assay of OR2K2 mutants transfected into Hana3A cells", "type": "cell-based", "conditions": "OR2K2 E159A mutant in Hana3A cells", "source_text": "as §1, §2"}, "OR2K2 [10]": {"test_system": "OR2K2", "test": "Luciferase assay of OR2K2 mutants transfected into Hana3A cells", "type": "cell-based, human", "conditions": "OR2K2 with both D270 and E159 mutated, Hana3A cells", "source_text": "as §1, §2"}}, "note": "Changes are numbered by the printed parent chain."}
{"smiles": "O=C(O)CCCCCCCC(=O)O", "note": "[azelaic acid, nonanedioic acid]", "values": [{"measurement": "body weight", "setting": "[1]", "value": "Significant body weight reduction efficacy"}, {"measurement": "effect on gene expression when the OR2K2 gene was knocked down", "setting": "HepG2 cells [2]; human liver tissue cell line (HepG2)", "value": "disappear"}, {"measurement": "fatty acid oxidation gene expression (qPCR)", "setting": "HepG2 cells [2]; liver tissue cells (HepG2) treated with azelaic acid", "value": "increased"}, {"measurement": "concentration of glycerol", "setting": "[3]", "value": "no change"}, {"measurement": "triglyceride concentration", "setting": "HepG2 cells [4]; HepG2 cells (lipid-loaded)", "value": "significantly decreased"}, {"measurement": "CREB phosphorylation (p-CREB)", "setting": "HepG2 cells [4]; HepG2 cells", "value": "increased"}, {"measurement": "cAMP-PKA signaling pathway", "setting": "HepG2 cells [4]; HepG2 cells", "value": "activated"}, {"measurement": "expression of fatty acid oxidation-related gene PPAR-α", "setting": "HepG2 cells [4]; HepG2 cells", "value": "increased"}, {"measurement": "fatty acid oxidation (FA oxidation)", "setting": "HepG2 cells [4]; HepG2 cells", "value": "increased"}, {"measurement": "consumption amount of O2", "setting": "normal mice; vs control", "value": "no large difference"}, {"measurement": "fatty acid oxidation", "setting": "normal mice; vs control", "value": "increased"}, {"measurement": "respiratory quotient (RQ)", "setting": "normal mice; vs control", "value": "decreased"}, {"measurement": "total energy expenditure (EE)", "setting": "normal mice; vs control", "value": "no change"}, {"measurement": "production amount of CO2", "setting": "normal mice; vs control group", "value": "significantly increased"}, {"measurement": "concentration of intracellular cholesterol", "setting": "3T3-L1 adipocytes [5]", "value": "no significant change"}, {"measurement": "concentration of azelaic acid in a human body", "setting": "[6]", "value": "10 to 50", "unit": "µM"}, {"measurement": "phosphorylation of CREB", "setting": "3T3-L1 adipocytes [7]", "value": "rapidly increased"}, {"measurement": "phosphorylation of HSL", "setting": "3T3-L1 adipocytes [7]", "value": "rapidly increased"}, {"measurement": "activity of azelaic acid (luciferase)", "setting": "OR2K2 [8]", "value": "statistically significantly decreased"}, {"measurement": "activity of azelaic acid (luciferase)", "setting": "OR2K2 [9]", "value": "statistically significantly decreased"}, {"measurement": "azelaic acid reaction (luciferase)", "setting": "OR2K2 [10]", "value": "statistically significantly reduced"}]}
